Measurements published in patent US5358947A, “Angiotensin II receptor blocking 2,3-substituted pyrazolo[1,5-a]-1,3,5-triazin-4(3H)-ones” (American Cyanamid Company, priority 1993, dated 1994).
Several values for one entry are separate records, joined by “and”; a condition that tells them apart may be missing. Identical values can stand only once.

Test system: ANGIOTENSIN II (AII) VASOPRESSOR RESPONSE
Test: AII Challenge: angiotensin II (AII) vasopressor response in conscious rats
Format: in vivo
Parameters: Response After AII / Change / Average Change: unit not given here
Settings: for Response After AII / Change / Control Before AII: individual rat; for Control Before AII: in mmHg (unit assumed); for % Inhibition / Average Change: n = 2
How it was run: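 Conscious male Okamoto-Aoki SHR (16-20 weeks, ~330 g), aorta/vena cava cannulated, challenged with AII 0.05 and 0.1 ug/kg i.v. before and at 30-300 min after compound dosed i.v., i.p. or orally. Systolic pressure rise expressed relative to each rat's predose response (100%).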

[1] = 10 mg/kg i.v., AII 0.05 mcg/kg, 30 min post dose
[2] = 10 mg/kg i.v., AII 0.05 mcg/kg, 30 min post dose, listed as Ex. 20
[3] = 10 mg/kg i.v., AII 0.1 mcg/kg, 30 min post dose, listed as Ex. 20
[4] = 10 mg/kg i.v., AII 0.1 mcg/kg, 30 min post dose
[5] = 20 mg/kg i.v., AII 0.05 mcg/kg, 60 min post dose
[6] = 20 mg/kg i.v., AII 0.05 mcg/kg, 60 min post dose, listed as Ex. 20
[7] = 20 mg/kg i.v., AII 0.05 mcg/kg, 90 min post dose
[8] = 20 mg/kg i.v., AII 0.05 mcg/kg, 90 min post dose, listed as Ex. 20
[9] = 20 mg/kg i.v., AII 0.05 mcg/kg, 120 min post dose
[10] = 20 mg/kg i.v., AII 0.05 mcg/kg, 120 min post dose, listed as Ex. 20
[11] = 20 mg/kg i.v., AII 0.05 mcg/kg, 180 min post dose
[12] = 20 mg/kg i.v., AII 0.05 mcg/kg, 180 min post dose, listed as Ex. 20
[13] = 20 mg/kg i.v., AII 0.05 mcg/kg, 240 min post dose
[14] = 20 mg/kg i.v., AII 0.05 mcg/kg, 240 min post dose, listed as Ex. 20
[15] = 20 mg/kg i.v., AII 0.05 mcg/kg, 300 min post dose, listed as Ex. 20
[16] = 20 mg/kg i.v., AII 0.05 mcg/kg, 300 min post dose
[17] = 20 mg/kg i.v., AII 0.1 mcg/kg, 60 min post dose
[18] = 20 mg/kg i.v., AII 0.1 mcg/kg, 60 min post dose, listed as Ex. 20
[19] = 20 mg/kg i.v., AII 0.1 mcg/kg, 90 min post dose
[20] = 20 mg/kg i.v., AII 0.1 mcg/kg, 90 min post dose, listed as Ex. 20
[21] = 20 mg/kg i.v., AII 0.1 mcg/kg, 120 min post dose
[22] = 20 mg/kg i.v., AII 0.1 mcg/kg, 120 min post dose, listed as Ex. 20
[23] = 20 mg/kg i.v., AII 0.1 mcg/kg, 180 min post dose
[24] = 20 mg/kg i.v., AII 0.1 mcg/kg, 180 min post dose, listed as Ex. 20
[25] = 20 mg/kg i.v., AII 0.1 mcg/kg, 240 min post dose, listed as Ex. 20
[26] = 20 mg/kg i.v., AII 0.1 mcg/kg, 240 min post dose
[27] = 20 mg/kg i.v., AII 0.1 mcg/kg, 300 min post dose, listed as Ex. 20
[28] = 20 mg/kg i.v., AII 0.1 mcg/kg, 300 min post dose

Compound: CCCCc1nc2c(Br)cnn2c(=O)n1Cc1ccc(-c2ccccc2-c2nn[nH]n2)cc1 [Example 20]
- Response After AII [1]: 245
- Change [2]: 38 and 15
- Response After AII [2]: 215
- Control Before AII [2]: 207 and 200
- % Inhibition [1]: 34%
- Average Change [1]: 26.5
- Change [3]: 45 and 35
- Response After AII [3]: 260 and 235
- Control Before AII [3]: 215 and 200
- % Inhibition [4]: 36%
- Average Change [4]: 40
- Change [5]: 20
- Response After AII [5]: 200
- Response After AII [6]: 215
- Control Before AII [6]: 195 and 180
- % Inhibition [5]: 50%
- Average Change [5]: 20
- Response After AII [7]: 200
- Change [8]: 10 and 25
- Response After AII [8]: 225
- Control Before AII [8]: 215 and 175
- % Inhibition [7]: 56%
- Average Change [7]: 17.5
- Response After AII [9]: 250
- Change [10]: 45 and 20
- Response After AII [10]: 215
- Control Before AII [10]: 205 and 195
- % Inhibition [9]: 19%
- Average Change [9]: 32.5
- Response After AII [11]: 210
- Control Before AII [11]: 185
- Change [12]: 40 and 25
- Response After AII [12]: 225
- % Inhibition [11]: 19%
- Average Change [11]: 32.5
- Response After AII [13]: 230
- Control Before AII [13]: 185
- Change [14]: 45 and 40
- Response After AII [14]: 225
- % Inhibition [13]: -6%
- Average Change [13]: 42.5
- Change [15]: 50 and 35
- Response After AII [15]: 240 and 235
- Control Before AII [15]: 190 and 200
- % Inhibition [16]: -6%
- Average Change [16]: 42.5
- Response After AII [17]: 200
- Change [18]: 15 and 20
- Response After AII [18]: 215
- Control Before AII [18]: 200 and 180
- % Inhibition [17]: 72%
- Average Change [17]: 17.5
- Response After AII [19]: 245
- Change [20]: 40 and 30
- Response After AII [20]: 215
- Control Before AII [20]: 205 and 185
- % Inhibition [19]: 44%
- Average Change [19]: 35
- Response After AII [21]: 250
- Change [22]: 35 and 20
- Response After AII [22]: 215
- Control Before AII [22]: 215 and 195
- % Inhibition [21]: 56%
- Average Change [21]: 27.5
- Response After AII [23]: 225
- Change [24]: 30 and 60
- Control Before AII [24]: 195 and 165
- % Inhibition [23]: 28%
- Average Change [23]: 45
- Change [25]: 60 and 55
- Response After AII [25]: 260 and 245
- Control Before AII [25]: 200 and 190
- % Inhibition [26]: 8%
- Average Change [26]: 57.5
- Change [27]: 45 and 55
- Response After AII [27]: 265 and 245
- Control Before AII [27]: 220 and 190
- % Inhibition [28]: 20%
- Average Change [28]: 50
